Results on 10 compounds are retold here after patent US20230111310A1, “CARBOXYLIC ACID DERIVATIVE-SUBSTITUTED IMINO ARYL COMPOUND, PREPARATION METHOD THEREFOR, HERBICIDAL COMPOSITION AND USE THEREOF” (Qingdao Kingagroot Chemical Compound Co., Ltd., priority 2020, published 2023).

Common to all, as to experiment: Weeding effect in post-emergence stage
Format in all cases: in vivo
Common to all, as to conditions: Dose 15 g/ha; level of fresh weight growth control rate

Test [1] has as its system Echinochloa crusgalli. In a few lines:
(§1)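 Seeds are sown in soil-filled pots under 0.5-2 cm soil and grown 2 weeks in greenhouse. Plants at 2-3 leaves are sprayed with compound (acetone, Tween 80, 1.5 liter/ha methyl oleate EC, water) at 7.5 to 500 g/ha. Damage is rated 3 weeks later, averaging three repeats.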

Test [2] deals with Digitaria sanguinalis. In a few lines:
as §1

In test [3] the test system is Eleusine indica. In a few lines: as §1
Test [4] relates to Abutilon theophrasti. In a few lines:
as §1

For test [5], the system named is Setaria viridis. In a few lines: as §1
The subject of test [6] is Alopecurus japonicus. In a few lines: as §1

Consider `C[C@@H](O/N=C/c1cc(-n2c(=O)n(C)c(=S)n(C)c2=O)c(F)cc1Cl)C(=O)OCc1ccco1` [26(R)], for which, in test [1], the “Weeding effect in post-emergence stage, Echinochloa crusgalli” value (shortened to “Weeding effect … Echinochloa crusgalli”) is given as 5 (Level 5: growth control rate is above 85%). In addition, the “Weeding effect in post-emergence stage, Digitaria sanguinalis” value (from here on “Weeding effect … Digitaria sanguinalis”) in test [2] is on record as 5 (Level 5: growth control rate is above 85%). The “Weeding effect in post-emergence stage, Eleusine indica” value (“Weeding effect … Eleusine indica” for short) in test [3] is reported as 5 (Level 5: growth control rate is above 85%). Besides, in test [4], the “Weeding effect in post-emergence stage, Abutilon theophrasti” value (shortened to “Weeding effect … Abutilon theophrasti”) is given as 5 (Level 5: growth control rate is above 85%). Also, in test [5], the “Weeding effect in post-emergence stage, Setaria viridis” value (“Weeding effect … Setaria viridis” for short) is on record as 5 (Level 5: growth control rate is above 85%). In test [6], the “Weeding effect in post-emergence stage, Alopecurus japonicus” value (shortened to “Weeding effect … Alopecurus japonicus”) is given as 5 (Level 5: growth control rate is above 85%).

`C[C@@H](O/N=C/c1cc(-n2c(=O)n(C)c(=S)n(C)c2=O)c(F)cc1Cl)C(=O)OCc1ccccc1` [42(R)]: the “Weeding effect … Echinochloa crusgalli” value in test [1] was 5 (Level 5: growth control rate is above 85%). For the same compound, the “Weeding effect … Digitaria sanguinalis” value in test [2] is listed as 5 (Level 5: growth control rate is above 85%). The “Weeding effect … Eleusine indica” value in test [3] is 5 (Level 5: growth control rate is above 85%). Further, the “Weeding effect … Abutilon theophrasti” value in test [4] is listed as 5 (Level 5: growth control rate is above 85%). The “Weeding effect … Setaria viridis” value in test [5] is given as 5 (Level 5: growth control rate is above 85%). Moreover, in test [6], the “Weeding effect … Alopecurus japonicus” value was 4 (Level 4: growth control rate is greater than or equal to 60% and less than 85%).

For `C[C@@H](O/N=C/c1cc(-n2c(=O)n(C)c(=S)n(C)c2=O)c(F)cc1Cl)C(=O)OCc1cccnc1` [59(R)], in test [1], the “Weeding effect … Echinochloa crusgalli” value is listed as 5 (Level 5: growth control rate is above 85%). Further, the “Weeding effect … Digitaria sanguinalis” value in test [2] is reported as 5 (Level 5: growth control rate is above 85%). Further, the “Weeding effect … Eleusine indica” value in test [3] is on record as 5 (Level 5: growth control rate is above 85%). In addition, the “Weeding effect … Abutilon theophrasti” value in test [4] was 5 (Level 5: growth control rate is above 85%). In addition, in test [5], the “Weeding effect … Setaria viridis” value is listed as 5 (Level 5: growth control rate is above 85%). In test [6], the “Weeding effect … Alopecurus japonicus” value is 4 (Level 4: growth control rate is greater than or equal to 60% and less than 85%).

Turning to `C[C@@H](O/N=C/c1cc(-n2c(=O)n(C)c(=S)n(C)c2=O)c(F)cc1Cl)C(=O)OCc1ccncc1` [60(R)], in test [1], the “Weeding effect … Echinochloa crusgalli” value is given as 5 (Level 5: growth control rate is above 85%). Besides, the “Weeding effect … Digitaria sanguinalis” value in test [2] is 5 (Level 5: growth control rate is above 85%). In addition, in test [3], the “Weeding effect … Eleusine indica” value is 5 (Level 5: growth control rate is above 85%). Further, the “Weeding effect … Abutilon theophrasti” value in test [4] was 5 (Level 5: growth control rate is above 85%). In test [5], the “Weeding effect … Setaria viridis” value was 5 (Level 5: growth control rate is above 85%). In test [6], the “Weeding effect … Alopecurus japonicus” value is 4 (Level 4: growth control rate is greater than or equal to 60% and less than 85%).

Turning to `CC[C@@H](O/N=C/c1cc(-n2c(=O)n(C)c(=S)n(C)c2=O)c(F)cc1Cl)C(=O)OC` [72(R)], the “Weeding effect … Echinochloa crusgalli” value in test [1] is 5 (Level 5: growth control rate is above 85%). The “Weeding effect … Digitaria sanguinalis” value in test [2] was 5 (Level 5: growth control rate is above 85%). Also, the “Weeding effect … Eleusine indica” value in test [3] is 5 (Level 5: growth control rate is above 85%). Also, in test [4], the “Weeding effect … Abutilon theophrasti” value is given as 5 (Level 5: growth control rate is above 85%). For the same compound, the “Weeding effect … Setaria viridis” value in test [5] is 5 (Level 5: growth control rate is above 85%). In addition, the “Weeding effect … Alopecurus japonicus” value in test [6] was 5 (Level 5: growth control rate is above 85%).

Take `CCOC(=O)[C@H](O/N=C/c1cc(-n2c(=O)n(C)c(=S)n(C)c2=O)c(F)cc1Cl)C1CC1` [76(R)]: in test [1], the “Weeding effect … Echinochloa crusgalli” value was 5 (Level 5: growth control rate is above 85%). Moreover, in test [2], the “Weeding effect … Digitaria sanguinalis” value is 5 (Level 5: growth control rate is above 85%). Further, in test [3], the “Weeding effect … Eleusine indica” value is 5 (Level 5: growth control rate is above 85%). In addition, the “Weeding effect … Abutilon theophrasti” value in test [4] was 5 (Level 5: growth control rate is above 85%). Besides, the “Weeding effect … Setaria viridis” value in test [5] is 5 (Level 5: growth control rate is above 85%). The “Weeding effect … Alopecurus japonicus” value in test [6] was 5 (Level 5: growth control rate is above 85%).

For `COC[C@@H](O/N=C/c1cc(-n2c(=O)n(C)c(=S)n(C)c2=O)c(F)cc1Cl)C(=O)OC` [80(R)], the “Weeding effect … Echinochloa crusgalli” value in test [1] is 5 (Level 5: growth control rate is above 85%). For the same compound, in test [2], the “Weeding effect … Digitaria sanguinalis” value is listed as 5 (Level 5: growth control rate is above 85%). Also, the “Weeding effect … Eleusine indica” value in test [3] is reported as 5 (Level 5: growth control rate is above 85%). Moreover, the “Weeding effect … Abutilon theophrasti” value in test [4] is reported as 5 (Level 5: growth control rate is above 85%). Further, the “Weeding effect … Setaria viridis” value in test [5] was 5 (Level 5: growth control rate is above 85%). The “Weeding effect … Alopecurus japonicus” value in test [6] is reported as 5 (Level 5: growth control rate is above 85%).

As for `COC(=O)[C@@H](C)O/N=C/c1cc(-n2c(=O)n(C)c(=S)n(C)c2=O)c(F)cc1Br` [83(R)], the “Weeding effect … Echinochloa crusgalli” value in test [1] is recorded as 5 (Level 5: growth control rate is above 85%). The “Weeding effect … Digitaria sanguinalis” value in test [2] was 4 (Level 4: growth control rate is greater than or equal to 60% and less than 85%). Besides, the “Weeding effect … Eleusine indica” value in test [3] is recorded as 5 (Level 5: growth control rate is above 85%). Also, the “Weeding effect … Abutilon theophrasti” value in test [4] is recorded as 5 (Level 5: growth control rate is above 85%). Further, the “Weeding effect … Setaria viridis” value in test [5] is recorded as 5 (Level 5: growth control rate is above 85%). For the same compound, the “Weeding effect … Alopecurus japonicus” value in test [6] was 4 (Level 4: growth control rate is greater than or equal to 60% and less than 85%).

On to `CCOC(=O)[C@@H](C)O/N=C/c1cc(-n2c(=O)n(C)c(=S)n(C)c2=O)c(F)cc1Br` [84(R)], for which the “Weeding effect … Echinochloa crusgalli” value in test [1] is 5 (Level 5: growth control rate is above 85%). The “Weeding effect … Digitaria sanguinalis” value in test [2] was 4 (Level 4: growth control rate is greater than or equal to 60% and less than 85%). Besides, the “Weeding effect … Eleusine indica” value in test [3] is given as 5 (Level 5: growth control rate is above 85%). In test [4], the “Weeding effect … Abutilon theophrasti” value is given as 5 (Level 5: growth control rate is above 85%). Further, the “Weeding effect … Setaria viridis” value in test [5] is reported as 5 (Level 5: growth control rate is above 85%). Also, in test [6], the “Weeding effect … Alopecurus japonicus” value was 4 (Level 4: growth control rate is greater than or equal to 60% and less than 85%).

On to `COC(=O)[C@@H](C)O/N=C/c1cc(-n2c(=O)n(C)c(=S)n(C)c2=O)c(F)cc1C(F)(F)F` [85(R)], for which the “Weeding effect … Echinochloa crusgalli” value in test [1] is 5 (Level 5: growth control rate is above 85%). Besides, the “Weeding effect … Digitaria sanguinalis” value in test [2] is 5 (Level 5: growth control rate is above 85%). For the same compound, the “Weeding effect … Eleusine indica” value in test [3] is listed as 5 (Level 5: growth control rate is above 85%). The “Weeding effect … Abutilon theophrasti” value in test [4] is 5 (Level 5: growth control rate is above 85%). The “Weeding effect … Setaria viridis” value in test [5] is given as 5 (Level 5: growth control rate is above 85%). The “Weeding effect … Alopecurus japonicus” value in test [6] was 4 (Level 4: growth control rate is greater than or equal to 60% and less than 85%).
